This note sets out measurements from patent US10081615B2, “Sulfamate derivative compounds for use in treating or alleviating pain” (Bio-Pharm Solutions Co., Ltd., priority 2013, dated 2018).

Structures are written as SMILES. Like-named read-outs stand apart in the source and are kept apart here.

The subject of one series is CFA-induced pain model. Description: Antiallodynic activity on Complete Freund's Adjuvant (CFA)-induced inflammatory pain model (von Frey). The following applies: ip, 0.5 h, read-out: CFA model: effect (%) compared to control; for response vs control in vivo at 25 mg/kg: 25 mg/kg administered. The class given is in vivo, Sprague-Dawley rats. How it is done:
Male, Sprague-Dawley rats (200-220 g, Nara Bio, Korea) were habituated for 1 week before surgery and allowed free access to food and water throughout the experimentation. Room temperature and humidity were maintained at 24±2° C. and 50±10%, respectively.
CFA-induced inflammatory pain was induced by the procedure of Nagakura et al. (2003) and Gregory P. et al. (2010) with minor modifications. CFA (sigma, USA) was injected into the left plantar with a 100 ul volume under gaseous anesthesia with isoflurane and NO2 with a 4:4 flow ratio. Sham controls were injected with 100 ul of saline and preparation of the vehicle controls were identical to the group treated with compound, except for administration of vehicles without compound in the vehicle control group.
Tactile sensitivity (mechanical allodynia) was evaluated using von Frey monofilaments before and after treatment, and the animals were included in the study only if the withdrawal threshold value was less than 4 g. One week after surgery, CFA-infused animals (n=4˜6), sham-operated animals (n=12), and vehicle-operated animals (n=17) were tested for tactile sensitivity with von Frey monofilaments, with 3 trials for each animal. All animals were placed in a stainless steel mesh chamber and habituated for 30 min in the test cage. The tactile sensitivity for the ipsilateral hind paw was measured using the up-and-down method (Dixon, 1980) with seven von Frey monofilaments (0.4, 1, 2, 4, 6, 8, and 15 g) in 3 trials. The tactile sensitivity test was followed by Dixon's method (Dixon, 1980). The 50% paw withdrawal threshold for each paw was calculated using the following formula: [Xth] log=[vFr] log+ky where [vFr] is the force of the last von Frey used, k=0.2249 which is the average interval (in log units) between the von Frey monofilaments, and y is a value that depends upon the pattern of the withdrawal responses (Dixon, 1980).
The antiallodynic effect of the compound of Example was evaluated at the doses of 10, 30 and 60 mg/kg (n=4˜6), and were intraperitoneally administered in a volume of 5 ul/g by bodyweight in a vehicle of 30% (v/v) PEG. […]
The relative values compared to the sham (% control) were calculated and are shown in Table 4, which show an antiallodynic effect of the compound of examples in the CFA-induced pain model in rats.

The subject of the next series is SNL model. Description: Antiallodynic activity in the Chung model (SNL, Spinal Nerve Ligation; von Frey). The class given is in vivo, Sprague-Dawley rats. How it is done: Male Sprague-Dawley rats (200-220 g, Orient Bio, Korea) were habituated for 1 week before the experiment and allowed free access to food and water throughout the experimentation. Room temperature and humidity were maintained at 24±2° C. and 50±10%, respectively. The neuropathic surgery (SNL, Spinal Nerve Ligation) model was done as described in Kim and Chung (1992). Briefly, an animal was put under gaseous anesthesia with isoflurane and NO2 with a 4:4 flow ratio. The left lumbar spinal nerves L5 and L6 were isolated and tightly ligated with 4-0 silk thread. The wound was treated with a gentamicin antibiotic solution (4 mg/kg, 4 ul/g by bodyweight), and the wound muscle was closed with Catgut® chrome 4/0 thread and the skin was closed with Dafilon 4/0 thread. Sham controls were prepared in the same manner with the spinal nerves were exposed, but no ligated L5 and L6 nerves. Preparation of the vehicle controls were identical to the group treated with compound, except for administration of vehicles without compound in the vehicle control group.
Tactile sensitivity (mechanical allodynia) was evaluated using von Frey monofilaments before and after treatment and animals the animals were included in the study only if the withdrawal threshold value was less than 4 g. One week after surgery, SNL-operated animals (n=4˜6), sham-operated animals (n=4˜10) and vehicle-operated animals (n=4˜13) were tested for tactile sensitivity with von Frey monofilaments with 3 trials in each animal. All animals were placed in a stainless steel mesh chamber and habituated for 30 min in the test cage. The tactile sensitivity for ipsilateral hind paw was measured using the up-and-down method (Dixon, 1980) with seven von Frey monofilaments (0.4, 1, 2, 4, 6, 8, and 15 g) in 3 trials. The tactile sensitivity test was followed by Dixon's method (Dixon, 1980). The 50% paw withdrawal threshold for each paw was calculated using the following formula: [Xth] log=[vFr] log+ky where [vFr] is the force of the last von Frey used, k=0.2249 which is the average interval (in log units) between the von Frey monofilaments, and y is a value that depends upon the pattern of withdrawal responses (Dixon, 1980).
All animals were fasted for 18 h before the administration of the compounds. The antiallodynic effect of the compounds were evaluated at the various doses (n=5˜6), orally administered in a volume of 5 ul/g by bodyweight in a vehicle of 30% (v/v) PEG 400 (Example 7) or 20% (v/v) Tween 80 (Examples 5 and 6) or saline. […]
The relative values compared to the sham group (% control) were calculated and are shown in Table 5, which show an antiallodynic effect of the test compounds in the SNL model in rats.

The mark [1] stands for this setting: rat, intraperitoneal, 50 mg/kg administered.
[2] abbreviates: rat, oral, 3.5 mg/kg administered, time not given, read-out: SNL model: effect (%) compared to control.

In general, melting point refers to the temperature, or range, at which the solid turns liquid. The molecule `CC1(C)Oc2ccccc2[C@@H](COS([NH-])(=O)=O)O1.[Na+]` (hydrate or solvate) [Example 59, Sodium (S)-(((2,2-dimethyl-4H-benzo[d][1,3]dioxin-4-yl)methoxy)sulfonyl)amide Trihydrate] came in with a melting point of 51.2 to 52.2 °C.

With `CCC1(CC)Oc2ccccc2C(COS(N)(=O)=O)O1` (racemic) [Example 6, (2,2-diethyl-4H-benzo[d][1,3]dioxin-4-yl))methyl sulfamate], in the series on CFA-induced pain model (setting [1]), the response vs control in vivo at 50 mg/kg came out at 64.6%.

On to `CCC1(CC)Oc2ccccc2C(CCOS(N)(=O)=O)O1` (racemic) [Example 14, 2-(2,2-diethyl-4H-benzo[d][1.3]dioxin-4-yl)ethyl sulfamate], for which the response vs control in vivo at 3.5 mg/kg with SNL model (setting [2]) came out at 37.9%.

Take `NS(=O)(=O)OCCC1OC2(CCCCC2)Oc2ccccc21` (racemic) [Example 16, 2-(4H-spiro[benzo[d][1.3]dioxine-2,1′-cyclohexan]-4-yl)ethyl sulfamate]: the response vs control in vivo at 50 mg/kg in the series on CFA-induced pain model (setting [1]) is 38.9%.

For the molecule `CC1(C)Oc2ccccc2CC(COS(N)(=O)=O)O1` (racemic) [Example 17, (2,2-dimethyl-4,5-dihydrobenzo[d][1,3]dioxepin-4-yl)methyl sulfamate], in the series on SNL model (rat, oral, 3.5 mg/kg administered, 0.5 h, read-out: SNL model: effect (%) compared to control), the response vs control in vivo at 3.5 mg/kg worked out at 16.8%.

On to `CCC1(CC)Oc2ccccc2CC(COS(N)(=O)=O)O1` (racemic) [Example 18, (2,2-diethyl-4,5-dihydrobenzo[d][1,3]dioxepin-4-yl)methyl sulfamate], for which the response vs control in vivo at 50 mg/kg in the series with CFA-induced pain model (setting [1]) amounted to 91.7%.

With `NS(=O)(=O)OCC1Cc2ccccc2OC2(CCCC2)O1` (racemic) [Example 19, (4,5-dihydrospiro[benzo[d][1,3]dioxepine-2,1′-cyclopentan]-4-yl)methyl sulfamate], the response vs control in vivo at 3.5 mg/kg in the series on SNL model (setting [2]) was found to be 33.3%.

Consider `NS(=O)(=O)OCC1Cc2ccccc2OC2(CCCCC2)O1` (racemic) [Example 20, (4,5-dihydrospiro[benzo[d][1,3]dioxepine-2,1′-cyclohexan]-4-yl)methyl sulfamate], for which, in the series on CFA-induced pain model (setting [1]), the response vs control in vivo at 50 mg/kg was found to be 69%.

In the case of `CC1(C)Oc2cc(Cl)ccc2C(COS(N)(=O)=O)O1` (racemic) [Example 45, (7-chloro-2,2-dimethyl-4H-benzo[d][1,3]dioxin-4-yl)methyl sulfamate], the response vs control in vivo at 50 mg/kg in the series with CFA-induced pain model (setting [1]) amounted to 33.1%.

In the case of `CC1(C)Oc2ccc(Cl)cc2C(COS(N)(=O)=O)O1` (racemic) [Example 48, (6-chloro-2,2-dimethyl-4H-benzo[d][1,3]dioxin-4-yl)methyl sulfamate], the response vs control in vivo at 50 mg/kg with CFA-induced pain model (setting [1]) was found to be 21.7%.

For the molecule `CCC1(CC)Oc2ccc(Cl)cc2C(COS(N)(=O)=O)O1` (racemic) [Example 51, (6-chloro-2,2-diethyl-4H-benzo[d][1,3]dioxin-4-yl)methyl sulfamate], the response vs control in vivo at 50 mg/kg in the series on CFA-induced pain model (setting [1]) is 23.3%.

For `NS(=O)(=O)OCC1OC2(CCCCC2)Oc2ccc(Cl)cc21` (racemic) [Example 53, (6-chloro-4H-spiro[benzo[d][1,3]dioxine-2,1′-cyclohexan]-4-yl)methyl sulfamate], the response vs control in vivo at 25 mg/kg in the series on CFA-induced pain model (rat, intraperitoneal) was 57.3%.

Take `CC1(C)Oc2ccc(F)cc2C(COS(N)(=O)=O)O1` (racemic) [Example 54, (6-fluoro-2,2-dimethyl-4H-benzo[d][1,3]dioxin-4-yl)methyl sulfamate]: in the series on CFA-induced pain model (rat, intraperitoneal), the response vs control in vivo at 25 mg/kg worked out at 82.9%.

As for `COc1ccc2c(c1)C(COS(N)(=O)=O)OC(C)(C)O2` (racemic) [Example 57, (6-methoxy-2,2-dimethyl-4H-benzo[d][1,3]dioxin-4-yl)methyl sulfamate], the response vs control in vivo at 25 mg/kg with CFA-induced pain model (rat, intraperitoneal) came out at 39.1%.

In the case of `NS(=O)(=O)OC[C@H]1OC2(CCCC2)Oc2ccccc21` [Example 8, ((S)-4H-spiro[benzo[d][1,d]dioxine-2,1′-cyclopentan]-4-yl)methyl sulfamate], the response vs control in vivo at 50 mg/kg in the series on CFA-induced pain model (setting [1]) was determined as 74.8%.

For the molecule `NS(=O)(=O)OC[C@@H]1OC2(CCCCC2)Oc2ccccc21` [Example 10, ((R)-4H-spiro[benzo[d][1,3]dioxine-2,1′-cylcohexan]-4-yl)methyl sulfamate], in the series with CFA-induced pain model (rat, intraperitoneal), the response vs control in vivo at 25 mg/kg came to 37.2%.

For the molecule `CC1(C)Oc2c(Cl)cccc2[C@@H](COS(N)(=O)=O)O1` [Example 26, ((S)-8-chloro-2,2-dimethyl-4H-benzo[d][1,3]dioxin-4-yl)methyl sulfamate], the response vs control in vivo at 50 mg/kg in the series on CFA-induced pain model (setting [1]) came out at 34.2%.

For the molecule `CCC1(CC)Oc2c(Cl)cccc2[C@@H](COS(N)(=O)=O)O1` [Example 29, ((S)-8-chloro-2,2-diethyl-4H-benzo[d][1,3]dioxin-4-yl)methyl sulfamate], the response vs control in vivo at 25 mg/kg in the series with CFA-induced pain model (rat, intraperitoneal) is 43.9%.

As for `NS(=O)(=O)OC[C@H]1OC2(CCCC2)Oc2c(Cl)cccc21` [Example 32, ((S)-8-chloro-4H-spiro[benzo[d][1,3]dioxine-2,1′-cyclopentan]-4-yl)methyl sulfamate], in the series with CFA-induced pain model (setting [1]), the response vs control in vivo at 50 mg/kg came out at 51.9%.

Consider `NS(=O)(=O)OC[C@H]1OC2(CCCCC2)Oc2c(Cl)cccc21` [Example 35, ((S)-8-chloro-4H-spiro[benzo[d][1,3]dioxine-2,1′-cylcohexan]-4-yl)methyl sulfamate], for which the response vs control in vivo at 50 mg/kg in the series on CFA-induced pain model (setting [1]) stood at 15.5%.

As to `CC1(C)Oc2ccc(Cl)cc2[C@H](COS(N)(=O)=O)O1` [Example 46, ((R)-6-chloro-2,2-dimethyl-4H-benzo[d][1,3]dioxin-4-yl)methyl sulfamate], the response vs control in vivo at 50 mg/kg in the series with CFA-induced pain model (setting [1]) stood at 36.4%.

As for `CC1(C)Oc2ccc(Cl)cc2[C@@H](COS(N)(=O)=O)O1` [Example 47, ((S)-6-chloro-2,2-dimethyl-4H-benzo[d][1,3]dioxin-4-yl)methyl sulfamate], the response vs control in vivo at 50 mg/kg in the series on CFA-induced pain model (setting [1]) is 100%.

Turning to `CC1(C)Oc2ccc(Cl)cc2[C@H](COS(N)(=O)=O)O1` [Example 61, Sodium (R)-(((6-chloro-2,2-dimethyl-4H-benzo[d][1,3]dioxin-4-yl)methoxy)sulfonyl)amide], the response vs control in vivo at 3.5 mg/kg with SNL model (Rattus norvegicus, po, read-out: SNL model: effect (%) compared to control, rat, oral, 3.5 mg/kg administered, time not given) was determined as 20.9%.

With `CC1(C)Oc2ccccc2C(CCOS(N)(=O)=O)O1` (centres unmarked) [Example 68, Sodium ((2-(2,2-dimethyl-4H-benzo[d][1,3]dioxin-4-yl)ethoxy)sulfonyl)amide], the response vs control in vivo at 3.5 mg/kg with SNL model (Rattus norvegicus, po, 0.5 h, read-out: SNL model: effect (%) compared to control, rat, oral, 3.5 mg/kg administered, 0.5 h) came out at 25%.

As for `CC1(C)Oc2ccccc2C(COS(N)(=O)=O)O1` (centres unmarked) [Example 72, Potassium (((2,2-dimethyl-4H-benzo[d][1,3]dioxin-4-yl)methoxy)sulfonyl)amide], the response vs control in vivo at 50 mg/kg in the series on CFA-induced pain model (Rattus norvegicus) turned out to be 67.1%.

Turning to `CC1(C)Oc2ccccc2[C@@H](COS([NH-])(=O)=O)O1.[Li+]` [Example 73, Lithium (S)-(((2,2-dimethyl-4H-benzo[d][1,3]dioxin-4-yl)methoxy)sulfonyl)amide], the “SNL model: effect (%) compared to control” value with SNL model (rat, oral, 3.5 mg/kg administered, 0.5 h) is listed as “(13.5%, 0.5 h)”.
